In PubChem BioAssay AID2122 (Sanford-Burnham Center for Chemical Genomics, 2009):
Where “and” joins values, the source holds several entries; their conditions need not be identical. Identical values can stand only once.

Test system: MIN6 mouse insulinoma cells, cytotoxicity counterscreen
Assay: MIN6 cell viability loss – mouse insulinoma, cytotoxicity control, dose response (AID 2122)

**Q.** For `CN(C)c1ccnc2c[cH-]cc12.[Fe].c1ccc(-[c-]2[c-](-c3ccccc3)[c-](-c3ccccc3)[c-](-c3ccccc3)[c-]2-c2ccccc2)cc1` (stereo unspecified), which IC50 is on record?
**A.** The IC50 was 4.89 µM and 2.24 µM.
